Experimental data reported in patent publication US5853731A, “Thromboxane A2 Receptor antagonism and antioxidant action of cinnamophilin and its derivatives, their pharmaceutical compositions and uses” (National Science Council, priority 1997, dated 1998).
Where two headings read alike, the source gives them in different places.

Assays:
guinea-pig trachea = molecular target: T1, guinea-pig trachea (Cavia porcellus, UniProt A0A286Y4I8); assay: Guinea-pig tracheal contraction caused by U-46619; format: cell-based; conditions: for activity at 10 µM / activity at 30 µM / activity at 100 µM: guinea pig, read-out: Contraction (% of maximal contraction); for activity at 10 µM: cinnamophilin 10 μM; for activity at 30 µM: cinnamophilin 30 μM; for activity at 100 µM: cinnamophilin 100 μM
T1 construct: Tracheae from guinea-pigs were dissected out; from tissue; host or cells: guinea-pig trachea
T1 sequence (A0A286Y4I8 1-347): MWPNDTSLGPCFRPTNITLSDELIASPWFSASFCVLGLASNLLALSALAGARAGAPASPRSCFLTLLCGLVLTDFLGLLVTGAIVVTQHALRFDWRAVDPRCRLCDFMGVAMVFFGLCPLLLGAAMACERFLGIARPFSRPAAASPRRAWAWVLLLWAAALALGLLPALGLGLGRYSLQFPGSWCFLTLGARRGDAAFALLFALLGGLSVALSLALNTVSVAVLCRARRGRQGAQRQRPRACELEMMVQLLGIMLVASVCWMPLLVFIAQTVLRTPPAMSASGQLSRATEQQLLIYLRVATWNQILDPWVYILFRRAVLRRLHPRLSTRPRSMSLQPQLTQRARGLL
Protocol: B. Guinea-pig tracheal contraction
Tracheae from guinea-pigs were dissected out, transferred to a dish containing Krebs solution and cut transversely between the segments of cartilage. Several of these, usually about 5, were tied together so as to form a chain, which was then mounted in Krebs solution at 37° C., gassed with 95% O2 plus 5% CO2. One end of the chain was attached to a fixed pin in the bath and the other to a transducer connected to a Grass polygraph. Resting tension of each tissue was set at 1 g, Tracheae were allowed to equilibrate for at least 1 hr and washed-periodically.
Cumulative concentration-response curves were obtained by application of various concentrations of spasmogens for 15-18 min at 3 minutes intervals. Tracheal rings were pre-incubated with cinnamophilin for 15 min, then various concentrations of spasmogens were added for 15-18 min at 3 min intervals. Results were expressed as percentage of the maximal control response for each agonist.

TXA2 receptor = assay: Large scale screening test: TXA2 receptor antagonism; format: biochemical

COc1cc(CC(C)C(C)C(=O)c2ccc(O)c(OC)c2)ccc1O (stereo not shown) [Compound 1, cinnamophilin]
Kb (guinea-pig trachea; against U-46619, read-out: pA2, guinea-pig tracheal contraction induced by U-46619 (converted)): 6.31 µM | activity at 10 µM (guinea-pig trachea; U-46619 0.01 μM): 5.7 ± 2% | activity at 10 µM (guinea-pig trachea; U-46619 0.02 μM): 17.1 ± 4.5% | activity at 10 µM (guinea-pig trachea; U-46619 0.05 μM): 35 ± 5% | activity at 10 µM (guinea-pig trachea; U-46619 0.1 μM): 52 ± 5% | activity at 10 µM (guinea-pig trachea; U-46619 0.2 μM): 70 ± 6% | activity at 10 µM (guinea-pig trachea; U-46619 0.5 μM): 79 ± 4% | activity at 10 µM (guinea-pig trachea; U-46619 1 μM): 85 ± 5% | activity at 10 µM (guinea-pig trachea; U-46619 2 μM): 90 ± 4% | activity at 10 µM (guinea-pig trachea; U-46619 5 μM): 94 ± 4% | activity at 30 µM (guinea-pig trachea; U-46619 0.02 μM): 3% | activity at 30 µM (guinea-pig trachea; U-46619 0.05 μM): 11 ± 3% | activity at 30 µM (guinea-pig trachea; U-46619 0.1 μM): 22 ± 4% | activity at 30 µM (guinea-pig trachea; U-46619 0.2 μM): 35 ± 4% | activity at 30 µM (guinea-pig trachea; U-46619 0.5 μM): 52 ± 5% | activity at 30 µM (guinea-pig trachea; U-46619 1 μM): 67 ± 4% | activity at 30 µM (guinea-pig trachea; U-46619 2 μM): 80 ± 4.5% | activity at 30 µM (guinea-pig trachea; U-46619 5 μM): 88 ± 5% | activity at 30 µM (guinea-pig trachea; U-46619 10 μM): 92 ± 5% | activity at 100 µM (guinea-pig trachea; U-46619 0.05 μM): 0% | activity at 100 µM (guinea-pig trachea; U-46619 0.1 μM): 5 ± 3% | activity at 100 µM (guinea-pig trachea; U-46619 0.2 μM): 15 ± 3% | activity at 100 µM (guinea-pig trachea; U-46619 0.5 μM): 27 ± 4.5% | activity at 100 µM (guinea-pig trachea; U-46619 1 μM): 41 ± 4% | activity at 100 µM (guinea-pig trachea; U-46619 2 μM): 55 ± 5.7% | activity at 100 µM (guinea-pig trachea; U-46619 5 μM): 68 ± 5.7% | activity at 100 µM (guinea-pig trachea; U-46619 10 μM): 78 ± 3% | TXA2 receptor antagonizing property (TXA2 receptor): TXA2 receptor antagonizing properties
